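Five compound concentrations were applied to cells in 96-well plates for 48 hours; endpoints were derived by simple linear interpolation of the resulting dose-response curve. TGI: concentration producing complete growth inhibition.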
What was measured:
Experiment in all cases: inhibition of tumour cell growth, NCI panel, 48 h
786-0 renal = test system: 786-0 renal
A549 NSCLC = test system: A549 NSCLC
ACHN renal = test system: ACHN renal
BT-549 breast = test system: BT-549 breast
CAKI-1 renal = test system: CAKI-1 renal
CCRF-CEM leukemia = test system: CCRF-CEM leukemia
COLO 205 colon = test system: COLO 205 colon
DU-145 prostate = test system: DU-145 prostate
EKVX NSCLC = test system: EKVX NSCLC
HCC-2998 colon = test system: HCC-2998 colon
HCT-116 colon = test system: HCT-116 colon
HCT-15 colon = test system: HCT-15 colon
HL-60(TB) leukemia = test system: HL-60(TB) leukemia
HOP-62 NSCLC = test system: HOP-62 NSCLC
HS 578T breast = test system: HS 578T breast
HT29 colon = test system: HT29 colon
IGROV1 ovarian = test system: IGROV1 ovarian
K-562 leukemia = test system: K-562 leukemia
KM12 colon = test system: KM12 colon
LOX IMVI melanoma = test system: LOX IMVI melanoma
M14 melanoma = test system: M14 melanoma
MALME-3M melanoma = test system: MALME-3M melanoma
MCF7 breast = test system: MCF7 breast
MDA-MB-231 breast = test system: MDA-MB-231 breast
MDA-MB-435 = test system: MDA-MB-435
MDA-N = test system: MDA-N
MOLT-4 leukemia = test system: MOLT-4 leukemia
NCI-H226 lung = test system: NCI-H226 lung
NCI-H23 lung = test system: NCI-H23 lung
NCI-H522 lung = test system: NCI-H522 lung
NCI/ADR-RES ovarian = test system: NCI/ADR-RES ovarian
OVCAR-3 ovarian = test system: OVCAR-3 ovarian
OVCAR-4 ovarian = test system: OVCAR-4 ovarian
OVCAR-5 ovarian = test system: OVCAR-5 ovarian
OVCAR-8 ovarian = test system: OVCAR-8 ovarian
PC-3 prostate = test system: PC-3 prostate
RPMI-8226 leukemia = test system: RPMI-8226 leukemia
SF-268 CNS = test system: SF-268 CNS
SF-295 CNS = test system: SF-295 CNS
SK-MEL-2 melanoma = test system: SK-MEL-2 melanoma
SK-MEL-28 melanoma = test system: SK-MEL-28 melanoma
SK-MEL-5 melanoma = test system: SK-MEL-5 melanoma
SK-OV-3 ovarian = test system: SK-OV-3 ovarian
SN12C renal = test system: SN12C renal
SNB-19 CNS = test system: SNB-19 CNS
SR leukemia = test system: SR leukemia
SW-620 colon = test system: SW-620 colon
TK-10 renal = test system: TK-10 renal
U251 CNS = test system: U251 CNS
UACC-257 melanoma = test system: UACC-257 melanoma
UO-31 renal = test system: UO-31 renal
A498 renal = test system: A498 renal
HOP-92 NSCLC = test system: HOP-92 NSCLC
NCI-H460 lung = test system: NCI-H460 lung
RXF 393 renal = test system: RXF 393 renal
SF-539 CNS = test system: SF-539 CNS
SNB-75 CNS = test system: SNB-75 CNS
UACC-62 melanoma = test system: UACC-62 melanoma

CC(=O)O[C@H]1CC2C(C3CCC(C(C)CCC(=O)O)[C@]31C)[C@H](OC(C)=O)C[C@@H]1CC3(CC[C@]21C)OOC1(CC[C@]2(C)C4C[C@H](OC(C)=O)[C@]5(C)C(C(C)CCC(=O)O)CCC5C4[C@H](OC(C)=O)C[C@@H]2C1)OO3 (stereo not given in full)
TGI (786-0 renal): 9.32 µM | TGI (A549 NSCLC): 5.19 µM | TGI (ACHN renal): 3.44 µM | TGI (BT-549 breast): 4.11 µM | TGI (CAKI-1 renal): 5.15 µM | TGI (CCRF-CEM leukemia): 9.87 µM | TGI (COLO 205 colon): 4.24 µM | TGI (DU-145 prostate): 4.48 µM | TGI (EKVX NSCLC): 9.67 µM | TGI (HCC-2998 colon): 3.8 µM | TGI (HCT-116 colon): 3.85 µM | TGI (HCT-15 colon): 6.39 µM | TGI (HL-60(TB) leukemia): 3.65 µM | TGI (HOP-62 NSCLC): 3.97 µM | TGI (HS 578T breast): 4.1 µM | TGI (HT29 colon): > 100 µM | TGI (IGROV1 ovarian): 4.25 µM | TGI (K-562 leukemia): > 100 µM | TGI (KM12 colon): 3.17 µM | TGI (LOX IMVI melanoma): 3.11 µM | TGI (M14 melanoma): 8.31 µM | TGI (MALME-3M melanoma): 3.13 µM | TGI (MCF7 breast): 12.3 µM | TGI (MDA-MB-231 breast): 3.85 µM | TGI (MDA-MB-435): 4.31 µM | TGI (MDA-N): 5.91 µM | TGI (MOLT-4 leukemia): 13.1 µM | TGI (NCI-H226 lung): 4.21 µM | TGI (NCI-H23 lung): 4.08 µM | TGI (NCI-H522 lung): 3.03 µM | TGI (NCI/ADR-RES ovarian): 26.7 µM | TGI (OVCAR-3 ovarian): 3.53 µM | TGI (OVCAR-4 ovarian): 9.84 µM | TGI (OVCAR-5 ovarian): 3.5 µM | TGI (OVCAR-8 ovarian): 4.97 µM | TGI (PC-3 prostate): 3.85 µM | TGI (RPMI-8226 leukemia): 14.7 µM | TGI (SF-268 CNS): 4.01 µM | TGI (SF-295 CNS): 4.72 µM | TGI (SK-MEL-2 melanoma): 3.64 µM | TGI (SK-MEL-28 melanoma): > 100 µM | TGI (SK-MEL-5 melanoma): 3.11 µM | TGI (SK-OV-3 ovarian): 11.6 µM | TGI (SN12C renal): 6.02 µM | TGI (SNB-19 CNS): > 100 µM | TGI (SR leukemia): 9.55 µM | TGI (SW-620 colon): > 100 µM | TGI (TK-10 renal): 6.8 µM | TGI (U251 CNS): 2.59 µM | TGI (UACC-257 melanoma): 4.68 µM | TGI (UO-31 renal): 3.32 µM

CC(=O)NCCc1c(-c2[nH]c3ccccc3c2CCNC(C)=O)[nH]c2ccccc12
TGI (786-0 renal): > 100 µM | TGI (A498 renal): > 100 µM | TGI (A549 NSCLC): > 100 µM | TGI (ACHN renal): > 100 µM | TGI (BT-549 breast): > 100 µM | TGI (CAKI-1 renal): > 100 µM | TGI (CCRF-CEM leukemia): > 100 µM | TGI (COLO 205 colon): > 100 µM | TGI (DU-145 prostate): > 100 µM | TGI (EKVX NSCLC): > 100 µM | TGI (HCC-2998 colon): > 100 µM | TGI (HCT-116 colon): > 100 µM | TGI (HCT-15 colon): > 100 µM | TGI (HOP-62 NSCLC): > 100 µM | TGI (HOP-92 NSCLC): > 100 µM | TGI (HS 578T breast): > 100 µM | TGI (HT29 colon): > 100 µM | TGI (IGROV1 ovarian): > 100 µM | TGI (K-562 leukemia): > 100 µM | TGI (LOX IMVI melanoma): > 100 µM | TGI (MCF7 breast): > 100 µM | TGI (MDA-MB-231 breast): > 100 µM | TGI (MDA-MB-435): > 100 µM | TGI (MDA-N): > 100 µM | TGI (MOLT-4 leukemia): > 100 µM | TGI (NCI-H226 lung): > 100 µM | TGI (NCI-H23 lung): > 100 µM | TGI (NCI-H460 lung): > 100 µM | TGI (NCI/ADR-RES ovarian): > 100 µM | TGI (OVCAR-3 ovarian): > 100 µM | TGI (OVCAR-4 ovarian): > 100 µM | TGI (OVCAR-5 ovarian): > 100 µM | TGI (OVCAR-8 ovarian): > 100 µM | TGI (PC-3 prostate): > 100 µM | TGI (RPMI-8226 leukemia): > 100 µM | TGI (RXF 393 renal): > 100 µM | TGI (SF-268 CNS): > 100 µM | TGI (SF-295 CNS): > 100 µM | TGI (SF-539 CNS): > 100 µM | TGI (SK-MEL-2 melanoma): > 100 µM | TGI (SK-MEL-28 melanoma): > 100 µM | TGI (SK-MEL-5 melanoma): > 100 µM | TGI (SK-OV-3 ovarian): > 100 µM | TGI (SN12C renal): > 100 µM | TGI (SNB-19 CNS): > 100 µM | TGI (SNB-75 CNS): > 100 µM | TGI (SR leukemia): > 100 µM | TGI (SW-620 colon): > 100 µM | TGI (TK-10 renal): > 100 µM | TGI (U251 CNS): > 100 µM | TGI (UACC-257 melanoma): > 100 µM | TGI (UACC-62 melanoma): > 100 µM | TGI (UO-31 renal): > 100 µM

CC12OC1(C)C1C(=O)OCC1C2=O (stereo not given)
TGI (786-0 renal): > 100 µM | TGI (A498 renal): > 100 µM | TGI (A549 NSCLC): > 100 µM | TGI (ACHN renal): > 100 µM | TGI (BT-549 breast): > 100 µM | TGI (CAKI-1 renal): 71.5 µM | TGI (CCRF-CEM leukemia): 36 µM | TGI (COLO 205 colon): > 100 µM | TGI (DU-145 prostate): > 100 µM | TGI (HCC-2998 colon): > 100 µM | TGI (HCT-116 colon): > 100 µM | TGI (HCT-15 colon): > 100 µM | TGI (HL-60(TB) leukemia): 54.3 µM | TGI (HOP-62 NSCLC): > 100 µM | TGI (HOP-92 NSCLC): > 100 µM | TGI (HS 578T breast): 94.1 µM | TGI (HT29 colon): > 100 µM | TGI (IGROV1 ovarian): > 100 µM | TGI (K-562 leukemia): 72.4 µM | TGI (KM12 colon): > 100 µM | TGI (LOX IMVI melanoma): > 100 µM | TGI (M14 melanoma): > 100 µM | TGI (MALME-3M melanoma): 69.7 µM | TGI (MCF7 breast): > 100 µM | TGI (MDA-MB-231 breast): > 100 µM | TGI (MDA-MB-435): > 100 µM | TGI (MDA-N): > 100 µM | TGI (NCI-H226 lung): > 100 µM | TGI (NCI-H23 lung): > 100 µM | TGI (NCI-H460 lung): > 100 µM | TGI (NCI-H522 lung): 27.9 µM | TGI (NCI/ADR-RES ovarian): > 100 µM | TGI (OVCAR-3 ovarian): > 100 µM | TGI (OVCAR-4 ovarian): > 100 µM | TGI (OVCAR-5 ovarian): > 100 µM | TGI (OVCAR-8 ovarian): > 100 µM | TGI (PC-3 prostate): > 100 µM | TGI (RPMI-8226 leukemia): > 100 µM | TGI (RXF 393 renal): 84.6 µM | TGI (SF-268 CNS): > 100 µM | TGI (SF-295 CNS): > 100 µM | TGI (SF-539 CNS): > 100 µM | TGI (SK-MEL-2 melanoma): > 100 µM | TGI (SK-MEL-28 melanoma): > 100 µM | TGI (SK-MEL-5 melanoma): > 100 µM | TGI (SK-OV-3 ovarian): > 100 µM | TGI (SN12C renal): 55.4 µM | TGI (SNB-19 CNS): > 100 µM | TGI (SNB-75 CNS): > 100 µM | TGI (SR leukemia): 69.2 µM | TGI (SW-620 colon): > 100 µM | TGI (TK-10 renal): > 100 µM | TGI (U251 CNS): > 100 µM | TGI (UACC-257 melanoma): > 100 µM | TGI (UACC-62 melanoma): > 100 µM | TGI (UO-31 renal): > 100 µM

— PubChem BioAssay (NCI)
